Holding throughout (experiment): DTP human tumour cell line panel, 48 h
Test [1] concerns ACHN renal.
Test [2] has as its system CCRF-CEM leukemia.
Test [3] deals with EKVX NSCLC.
The test system of test [4] is HOP-92 NSCLC.
In test [5] the test system is LOX IMVI melanoma.
For test [6], the system named is SK-MEL-2 melanoma.
In test [7] the test system is SR leukemia.
Test [8] concerns SW-620 colon.
Test [9] concerns UACC-62 melanoma.

Each structure is given as a SMILES string. “And” between values parts separate entries of the source, which are not always exact repeats. Equal entries are not always repeated.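 96-well plates; 48 h exposure; 5 concentrations. Endpoints by linear interpolation between flanking doses. Not reached: highest tested concentration assigned. GI50 = concentration required for 50% inhibition of growth. The concentration for full growth arrest is given as TGI.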

As to `N/C(=N\C(N)=N\c1nc2ccccc2s1)c1ccnc(Br)c1`, the GI50 was 5.22 µM in test [1]; 3.7 µM in test [2]; 30.4 µM in test [3]; 7.02 µM in test [4]; 4.27 µM in test [5]; 3.81 µM in test [6]. The GI50 is 2.9 µM in [7], 3.91 µM in [8] and 4.47 µM in test [9]. Also, the TGI in [1], in test [2], in [3], in test [4], in [5] and in test [6] was greater than 100 µM each time. Besides, the TGI in test [7], in test [8] and in [9] was greater than 100 µM in each case.

For `COc1cccc(/C=C2\CCc3ccccc3C2=O)c1`, the GI50 in [1] was 10.2 µM; in test [2], 3.04 µM; in test [3], 13.9 µM; in [4] it was 13.3 µM; in [5] it was 12.9 µM; in test [6], 12.9 µM. The GI50 in test [7] is 3.1 µM; in [8], 3.7 µM; in [9], 10.8 µM. Further, the TGI in test [1] came out at 25.3 µM; in test [2], 16.5 µM; in test [3], 29.3 µM; in test [4], 35.4 µM; in test [5], 36.8 µM; in test [6], 28.2 µM. Besides, the TGI was 15.1 µM in test [7], 13.4 µM in test [8] and 25.7 µM in test [9].

As for `NCCCCCCCCCn1c2c(c3ccccc3c1=O)C(=O)c1ccccc1-2`, the GI50 was 8.2 µM in [1]; 4.14 µM in [2]; 9.16 µM in test [3]; 10.1 µM in [4]; 7.38 µM in [5]; 15.5 µM in test [6]. The results for the GI50 in test [7], in [8] and in [9] were 1.55 µM, 6.11 µM and 9.35 µM, respectively. Also, the TGI is 17 µM in test [1]; greater than 50 µM in test [2]; 17.3 µM in test [3]; 21.1 µM in test [4]; 23.6 µM in test [5]; greater than 50 µM in [6]. The results for the TGI in test [7], in [8] and in [9] were greater than 50 µM, 15.6 µM and 18.1 µM, respectively.

Regarding `O=C1c2ccccc2-c2ccccc2C1(Cl)Cl`, the GI50 in [1] is 1.72 µM; in test [2], 1.65 µM; in test [3] it was 1.46 µM; in test [4], 1.76 µM; in test [5] it was 0.314 µM; in test [6], 1.52 µM. The GI50 in test [7] is 2.71 µM; in [8], 1.84 µM; in [9], 1.66 µM. In addition, the TGI in [1] came to 3.53 µM; in test [2], 7.03 µM; in [3], 2.88 µM; in test [4], 4.07 µM; in test [6], 3.02 µM; in [7], 8.71 µM. In addition, the TGI worked out at 3.82 µM in test [8] and 3.34 µM in test [9].

`Cc1cc2nc3c4cc([N+](=O)[O-])ccc4n(CCN(C)C)c3nc2cc1C`: the GI50 in [1] is 0.297 µM; in test [2], 0.642 µM; in [3] it was 0.579 µM; in test [4], 0.648 µM; in [5], 0.28 µM; in [6], 1 µM. Also, the GI50 in test [7] is 0.253 µM; in test [8] it was 0.301 µM; in test [9], 0.594 µM. Besides, the TGI was 1.68 µM in test [1]; 21.3 µM in test [2]; 5.49 µM in [3]; 13.3 µM in test [4]; 1.19 µM in test [5]; 3.03 µM in [6]. In addition, the TGI came to 5.1 µM in [7], 7.19 µM in test [8] and 2.13 µM in test [9].

`ClCc1ccc(-c2ccc(Cn3cnc4c(Cl)ncnc43)cc2)cc1`: the GI50 in test [1] is 1.5 µM; in test [2] it was 2.58 µM; in [3], 2.98 µM; in test [4], 2.02 µM; in [5] it was 1.33 µM; in test [6], 3.7 µM. The GI50 is 2.51 µM in test [7], 2.43 µM in test [8] and 1.58 µM in test [9]. Moreover, the TGI in test [1] is 2.89 µM; in [2], greater than 100 µM; in test [3], 12.9 µM; in test [4] it was 25.2 µM; in test [5], 3.01 µM; in test [6] it was greater than 100 µM. In addition, the TGI in [7] is greater than 100 µM; in [8], 6.63 µM; in test [9], 3.44 µM.

As to `COc1ccc(/C=C/C(=O)c2ccccc2)cc1OC`, the TGI in test [1] is 29.4 µM and 28.5 µM; in [3], 28.7 µM and 35.6 µM; in test [4] it was 41 µM and 79.4 µM; in test [5], 28.1 µM and 14.6 µM; in [6], 32.2 µM and 35.3 µM; in test [7], > 100 µM and 58.3 µM. For the same compound, the TGI in test [8] was > 100 µM and 18.4 µM; in [9], 27.1 µM and 27.3 µM. Further, the GI50 in test [2] was 3.72 µM; in test [3] it was 17.7 µM; in test [4], 26.3 µM; in test [5], 3.32 µM; in test [9], 11.7 µM.

Regarding `Clc1ccc(Nc2ncnc3c2sc2ncccc23)c(Cl)c1`, the GI50 is less than 0.01 µM in test [1]; 0.0218 µM in [2]; 0.0826 µM in test [3]; 0.0632 µM in test [4]; 0.0214 µM in test [5]; 30.7 µM in [6]. In addition, the 50% growth inhibitory concentration (GI50) is less than 0.0187 µM in [7], 0.0617 µM in test [8] and 0.0279 µM in [9]. For the same compound, the TGI in test [1] is 3.95 µM; in [2], greater than 100 µM; in test [3], greater than 100 µM; in [4], 21.6 µM; in test [5], greater than 100 µM; in test [6], greater than 100 µM. Also, the TGI in [7] is greater than 100 µM; in test [8] it was greater than 100 µM; in test [9], 8.37 µM.

The record behind these values is PubChem BioAssay (NCI).
